The values below come from PubChem BioAssay (NCI).

Holding throughout (assay): NCI-60 cell line screen, 48 h
The test system of test [1] is UACC-257 melanoma.
Test [2] has as its system SR leukemia.
For test [3], the system named is U251 CNS.
The test system of test [4] is HOP-62 NSCLC.
Test [5] relates to NCI-H522 lung.
The subject of test [6] is SK-OV-3 ovarian.
The test system of test [7] is SN12C renal.
Test [8] has as its system PC-3 prostate.
Test [9] deals with NCI/ADR-RES ovarian.
Test [10] relates to COLO 205 colon.

Structures are written as SMILES.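 96-well plates; 48 h exposure; 5 concentrations. Endpoints by linear interpolation between flanking doses. Not reached: highest tested concentration assigned. GI50 is the concentration that inhibits growth by half. Definition used: TGI = concentration required for complete inhibition of growth.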

Turning to `Nc1nc(-c2ccccc2)cc(-c2ccc(Cl)cc2)c1-c1nc2ccccc2o1`, the GI50 in [1] is 19.5 µM; in test [2], 3.08 µM; in [3], 9.2 µM; in test [4] it was 22.4 µM; in [5] it was 13.5 µM; in [6], 15.9 µM. For the same molecule, the GI50 in [7] was 7.56 µM; in test [8], 2.95 µM; in [9], 11.5 µM; in test [10] it was 21.4 µM. Besides, the TGI in test [1] worked out at 35.1 µM; in [2] it was 8.11 µM; in [3], 21 µM; in test [4] it was 37.8 µM; in [5] it was 30.6 µM; in test [6], 30.7 µM. Also, the TGI turned out to be 20 µM in test [7], 14.2 µM in [8], 43.4 µM in test [9] and 37.3 µM in test [10].

As for `O=c1ccnc(SCc2ccc(Cl)cc2)[nH]1`, the TGI in [1], in test [2], in test [3], in test [4], in test [5] and in test [6] was above 100 µM in each case. In addition, the TGI in test [7], in [8], in test [9] and in [10] was above 100 µM throughout.

For `C=C1C(=O)O[C@H]2[C@H]1CC/C(COC(=O)NCc1cc(OC)cc(OC)c1)=C\CC[C@@]1(C)O[C@@H]21`, the GI50 was 1.54 µM in test [1]; 0.32 µM in test [2]; 3.16 µM in test [3]; 3.06 µM in test [4]; 0.349 µM in [5]; 12.8 µM in test [6]. The GI50 in test [8] was 2.72 µM; in test [9], 2.98 µM; in test [10] it was 1.35 µM. Moreover, the TGI was 3.7 µM in [1]; 2.91 µM in test [2]; 11.1 µM in [3]; 11.7 µM in test [4]; 1.49 µM in [5]; 26.1 µM in test [6]. The figures for the TGI in test [8], in test [9] and in [10] were 8.67 µM, 10.2 µM and 3.09 µM, respectively.

Regarding `O=C(C=Nc1ccccc1C(=O)[O-])c1cccs1.O=C(C=Nc1ccccc1C(=O)[O-])c1cccs1.[Zn+2]`, the TGI is 43 µM in test [1]; above 100 µM in test [2]; 35.5 µM in test [3]; above 100 µM in [4]; 47.9 µM in test [5]; 37.9 µM in test [6]. Further, the TGI is above 10 µM in [7] and above 100 µM in test [10].

On to `CCCN1C(=O)CNC(=O)c2[nH]cnc21`, for which the TGI in test [1], in test [2], in test [3], in [4], in [5] and in test [6] was above 100 µM throughout. Also, the TGI in test [7] and in test [10] was above 100 µM throughout.

Take `O=C(Cc1ccccc1)NS(=O)(=O)c1ccccc1`: the TGI in [1], in test [2], in test [3], in test [4], in test [5] and in test [6] was above 100 µM each time. For the same molecule, the TGI in test [7] and in test [10] was above 100 µM throughout.

Take `C[CH2][Sn]([CH2]C)([O]C(=O)c1ccc(F)cc1)[O][Sn]([CH2]C)([CH2]C)[O]C(=O)c1ccc(F)cc1`: the GI50 in [1] was 41.1 µM; in test [2], 41.1 µM; in [3] it was 29.8 µM; in [4], above 100 µM; in test [5] it was 3.01 µM; in test [6], above 100 µM. The GI50 in test [7] was 67.2 µM; in test [10] it was 59.7 µM. Also, the TGI in test [1] is above 100 µM; in [2], above 100 µM; in test [3], above 100 µM; in test [4], above 100 µM; in [5] it was 12.4 µM; in [6], above 100 µM. For the same molecule, the TGI in test [7] and in test [10] was above 100 µM in each case.

With `O=NN(CCCl)C(=O)N[C@H]1CCCC[C@@H]1Cl`, the TGI in [2] was 17 µM; in test [3], above 100 µM; in test [5] it was above 100 µM; in [6] it was above 100 µM; in test [7], above 100 µM; in test [10], above 100 µM.

Regarding `COc1ccc(C2CC(=O)c3c(O)c(OC)c(OC)c(OC)c3O2)cc1O` (configuration not stated), the GI50 in [2] was 0.0467 µM; in test [3] it was 0.191 µM; in test [4] it was 0.377 µM; in test [5], 0.0386 µM; in [6], 0.371 µM; in [7] it was 1.1 µM. Also, the GI50 in test [8] is 0.0642 µM; in [9] it was 0.0616 µM; in test [10], 6.63 µM. In addition, the TGI was above 100 µM in test [2]; above 100 µM in test [3]; above 100 µM in test [4]; 0.775 µM in test [5]; above 100 µM in test [6]; above 100 µM in test [7]. For the same molecule, the TGI in test [8] was above 100 µM; in [9], above 100 µM; in test [10] it was 32.5 µM.

Turning to `CCCCCCCCCCCCC(CCCCCCCCCCCC)OP(=O)(O)O`, the TGI in [1], in [2], in [3], in test [4], in [5] and in test [6] was above 100 µM each time. Besides, the TGI in test [7] and in [10] was above 100 µM throughout.

In the case of `Cc1ccc(NC(=O)CC2C(=O)Nc3ccccc3S2=O)c(C)c1` (configuration not stated), the TGI in test [1] is above 100 µM; in [2], 7.54 µM; in test [3] it was 27 µM; in [4], 38.1 µM; in [5], 22 µM; in [6], 33.9 µM. For the same molecule, the TGI in test [7] worked out at 96.7 µM; in test [10] it was 60.5 µM.

Regarding `Cn1sc2ccccc2c1=S`, the TGI in test [1] is 21.3 µM; in test [2], 38.7 µM; in test [3], 13.5 µM; in test [4] it was 24.5 µM; in test [5] it was 9.36 µM; in [6] it was above 59.8 µM. Moreover, the values for the TGI in [7], in [9] and in [10] were 18.2 µM, 9.38 µM and 26.2 µM, respectively.
